Earlier results in patent US20170143675A1, “FORMULATIONS FOR TREATMENT OF HYPERTHYROIDISM” (DENDROPHARM GMBH, priority 2014, published 2017).
Like-named read-outs stand apart in the source and are kept apart here.

Key:
cats = details: randomized trial

Compound: Cn1ccnc1S [methimazole, 2-mercapto-1-methylimidazole]
- cats with gastrointestinal side effects (cats; oral administration): 24%
- cats with gastrointestinal side effects (cats; transdermal administration in PLO): 4%
- transdermal uptake (after a single dose in PLO): poor
- reduction of the serum T4 concentration (chronic transdermal administration in PLO): effective
